{"source": "paper PMC4103896", "about": "“Characterization and Evolutionary Implications of the Triad Asp-Xxx-Glu in Group II Phosphopantetheinyl Transferases” (PLoS ONE, 2014)", "format_in_all_cases": "biochemical", "key": {"SchPPT": {"target": "T1, SchPPT (Streptomyces chattanoogensis, UniProt H9N836)", "T1 construct": "full-length group II (Sfp-type) PPTase; SchPPT cloned in pET28a (pHJ0024), E. coli; N-terminal His6 stated for the mutants", "T1 sequence (H9N836 entry or part of it)": "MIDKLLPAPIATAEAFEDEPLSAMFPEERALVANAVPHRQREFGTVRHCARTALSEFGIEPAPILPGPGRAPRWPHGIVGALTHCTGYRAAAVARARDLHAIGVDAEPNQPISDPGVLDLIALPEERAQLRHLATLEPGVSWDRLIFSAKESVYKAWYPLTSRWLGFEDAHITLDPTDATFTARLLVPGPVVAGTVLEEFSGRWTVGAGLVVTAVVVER", "experiment": "in vitro phosphopantetheinylation of scn ACP0-2, LC-MS", "details": "2 mM CoA, 200 uM scn ACP0-2, 20 uM PPTase, 1.25 mM MgCl2, pH 7.5, 25 °C, 30 min"}, "Sppt [1]": {"target": "T2, Sppt (Synechocystis sp. PCC 6803, UniProt Q55185)", "T2 construct": "gene slr0495; full-length", "experiment": "in vitro phosphopantetheinylation of sch FAS ACP, HPLC", "details": "2 mM CoA, 200 uM sch FAS ACP, 20 uM Sppt, 1.25 mM MgCl2, pH 7.5, 25 °C, 30 min"}, "Sppt [2]": {"target": "T3, Sppt (Synechocystis sp. PCC 6803, UniProt Q55185, Q112E)", "T3 construct": "gene slr0495; full-length", "T3 sequence (Q55185 whole entry Q112E)": "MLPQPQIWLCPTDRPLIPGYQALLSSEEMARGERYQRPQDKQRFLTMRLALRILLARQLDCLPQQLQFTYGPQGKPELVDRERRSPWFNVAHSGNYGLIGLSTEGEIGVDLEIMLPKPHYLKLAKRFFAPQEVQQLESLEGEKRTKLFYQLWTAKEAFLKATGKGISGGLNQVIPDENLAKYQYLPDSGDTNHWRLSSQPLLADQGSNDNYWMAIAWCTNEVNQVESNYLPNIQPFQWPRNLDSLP", "experiment": "in vitro phosphopantetheinylation of sch FAS ACP, HPLC", "details": "2 mM CoA, 200 uM sch FAS ACP, 20 uM Sppt, 1.25 mM MgCl2, pH 7.5, 25 °C, 30 min"}}}
{"smiles": "CC(C)(COP(=O)(O)OP(=O)(O)OC[C@H]1O[C@@H](n2cnc3c(N)ncnc32)[C@H](O)[C@@H]1OP(=O)(O)O)[C@@H](O)C(=O)NCCC(=O)NCCS", "note": "[CoA]", "values": [{"measurement": "in vitro phosphopantetheinylation of scn ACP0-2, LC-MS", "setting": "SchPPT", "result": "only wild type SchPPT but neither of the two mutants phosphopantetheinylated scn ACP0-2"}, {"measurement": "in vitro phosphopantetheinylation of sch FAS ACP, HPLC", "setting": "Sppt [1]", "result": "After incubation of sch FAS ACP with CoA in the presence of Sppt"}, {"measurement": "in vitro phosphopantetheinylation of sch FAS ACP, HPLC", "setting": "Sppt [2]", "result": "After incubation of sch FAS ACP with CoA in the presence of SpptQ112E"}]}
